Experimental data as given in PMC6273152, “Design, Synthesis, and Biological Evaluation of Novel PARP-1 Inhibitors Based on a 1H-Thieno[3,4-d] Imidazole-4-Carboxamide Scaffold” (Molecules, 2016).
Where two headings read alike, the source gives them in different places. One block for each compound: values may come before it.

Experiments:
[1] = target: T1, PARP-1 enzyme (Homo sapiens, UniProt P09874); experiment: PARP-1 enzymatic inhibition assay (Trevigen 96-well kit, fluorescence); type: biochemical; conditions: logit method, six concentrations, read-out: IC50 (PARP-1 enzyme inhibitory activity)
T1 construct: purchased Trevigen 4690-096-K
T1 sequence (P09874 whole entry): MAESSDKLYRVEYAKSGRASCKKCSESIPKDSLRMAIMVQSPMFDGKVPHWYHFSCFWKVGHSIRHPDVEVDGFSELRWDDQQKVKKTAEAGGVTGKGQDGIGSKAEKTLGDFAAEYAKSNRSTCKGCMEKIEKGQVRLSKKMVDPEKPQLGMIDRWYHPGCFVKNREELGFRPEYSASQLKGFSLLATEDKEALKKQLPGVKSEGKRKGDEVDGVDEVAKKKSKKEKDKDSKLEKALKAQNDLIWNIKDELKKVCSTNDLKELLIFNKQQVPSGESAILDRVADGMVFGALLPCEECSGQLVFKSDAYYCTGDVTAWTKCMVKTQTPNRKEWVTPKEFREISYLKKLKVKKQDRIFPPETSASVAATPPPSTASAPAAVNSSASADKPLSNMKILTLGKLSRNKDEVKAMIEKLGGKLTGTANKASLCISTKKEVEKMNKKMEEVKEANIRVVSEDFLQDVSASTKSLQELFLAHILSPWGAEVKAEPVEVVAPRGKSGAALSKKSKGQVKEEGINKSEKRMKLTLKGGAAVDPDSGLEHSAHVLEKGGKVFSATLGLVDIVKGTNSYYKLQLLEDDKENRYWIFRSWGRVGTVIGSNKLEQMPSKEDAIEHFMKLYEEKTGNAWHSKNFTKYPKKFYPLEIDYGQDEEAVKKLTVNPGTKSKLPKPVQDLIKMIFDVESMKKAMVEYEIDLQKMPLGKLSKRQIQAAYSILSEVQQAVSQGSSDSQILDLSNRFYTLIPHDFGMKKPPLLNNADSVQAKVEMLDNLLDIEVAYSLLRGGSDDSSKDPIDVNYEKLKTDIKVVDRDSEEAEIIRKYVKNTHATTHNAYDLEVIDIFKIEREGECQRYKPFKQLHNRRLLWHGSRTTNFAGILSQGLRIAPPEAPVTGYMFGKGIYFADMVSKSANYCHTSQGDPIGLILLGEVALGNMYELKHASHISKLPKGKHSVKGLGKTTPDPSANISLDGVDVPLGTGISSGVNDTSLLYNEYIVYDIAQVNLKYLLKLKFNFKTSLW
Procedure: All target compounds were evaluated in vitro for their PARP-1 enzyme inhibitory activity.
The procedure was according to the instructions provided by the manufacturer. […] 25 μL of 1 × Buffer was added to each well and 25 μL of appropriate 2 × NAD^+ standards were added to 1B to 1G and 2B to 2G well of 96-well plate for standard curve. 25 μL of 2 μM NAD was added to 1H and 2H for PARP control. 25 μL of 2 μM NAD was added to wells for test compounds, then serially diluted compounds were added, and 1 μL of DMSO was added to the standard well. 25 μL of PARP Mix minus enzyme was added to 1A to 1G and 25 μL of PARP Mix plus enzyme was added to PARP control and compounds well. […] Then 50 μL stop solution was added to each well, and mixed with pipette. […] Then draw the standard curve and calculate the inhibition rate of each test compound.

[2] = tested on: HCC1937 (BRCA1-deficient) cells; experiment: CellTiter Glo assay for cell growth inhibition, HCC1937; conditions: HCC1937, 96 h, read-out: IC50 (BRCA-1, HCC1937)
Procedure: (§1) The growth inhibition potential of test compounds was determined on BRCA1-deficient cell lines HCC1937 and BRCA2-deficient cell lines CAPAN-1. The stock solutions of test compounds were dissolved in DMSO and serially diluted to the required concentrations for 9 doses. […] 60 μL medium was removed from each well and plates were kept at room temperature for 30 min. 60 μL reagent (Celltiter Glo assay kit, Promega, Sunnyvale, CA, USA) per well was added and plates were shaked for 2 min. Cells were incubated avoiding light at room temperature for 30 min and the luminescence value was recorded by multiplate reader. GraphPad Prism 5 was used to plot effect-dose curves and calculate the IC50 values of compounds.

[3] = tested on: normal human lung fibroblast (HLF) cells; experiment: Cytotoxicity assay (MTT) on normal human lung fibroblast cells; conditions: 72 h
Procedure: (§2) The cytotoxic potencies of test compounds were determined on normal human lung fibroblast (HLF) cells. Cells were seeded into 96-well plate at 3000 cells/well. The stock solutions of test compounds were dissolved in DMSO and serially diluted to the required concentrations for 7 doses, and the final testing concentrations for these compounds were 0.3, 1, 3, 10, 30, 100, 300 µM. […] The fraction of surviving cells after compound treatment was determined using the MTT assay.

[4] = in vitro; conditions: human, normal human lung fibroblast (HLF) cells
Procedure: as §2

[5] = tested on: CAPAN-1 (BRCA2-deficient) cells; experiment: CellTiter Glo assay for cell growth inhibition, CAPAN-1; conditions: CAPAN-1, 96 h, read-out: IC50 (BRCA-2, CAPAN-1)
Procedure: as §1

[6] = CellTiter Glo, nine concentrations

IC50 ([2]; Homo sapiens): 31.3 ± 0.35 µM | IC50 ([1]; Table 2 series (16a–n)): 0.151 µM | IC50 at 72 h [4]: 77.6 ± 1.5 µM
SMILES: NC(=O)c1scc2[nH]c(-c3cccc(C(F)(F)F)c3)nc12 [Compound 16g, 2-(3-(Trifluoromethyl)phenyl)-1H-thieno[3,4-d]imidazole-4-carboxamide]
Inhibition Rate ([3]; 0.3 µM): −1.65% | Inhibition Rate ([3]; 1 µM): −1.02% | Inhibition Rate ([3]; 3 µM): −0.63% | Inhibition Rate ([3]; 10 µM): 0.76% | Inhibition Rate ([3]; 30 µM): 4.13% | Inhibition Rate ([3]; 100 µM): 69.88% | Inhibition Rate ([3]; 300 µM): 99.40% | IC50 ([5]; Homo sapiens): 38.6 ± 6.75 µM

melting point: 241 to 243 °C
SMILES: NC(=O)c1scc2[nH]c(-c3ccccc3C(F)(F)F)nc12 [Compound 16h, 2-(2-(Trifluoromethyl)phenyl)-1H-thieno[3,4-d]imidazole-4-carboxamide]

IC50 ([2]; Homo sapiens): 32.9 ± 4.21 µM | IC50 ([1]; Table 2 series (16a–n)): 0.136 µM | IC50 at 72 h [4]: 94.1 ± 2.2 µM
SMILES: NC(=O)c1scc2[nH]c(-c3ccc([N+](=O)[O-])cc3)nc12 [Compound 16i, 2-(4-Nitrophenyl)-1H-thieno[3,4-d]imidazole-4-carboxamide]
Inhibition Rate ([3]; 0.3 µM): −0.05% | Inhibition Rate ([3]; 1 µM): 1.33% | Inhibition Rate ([3]; 3 µM): 0.99% | Inhibition Rate ([3]; 10 µM): 3.37% | Inhibition Rate ([3]; 30 µM): 2.56% | Inhibition Rate ([3]; 100 µM): 55.26% | Inhibition Rate ([3]; 300 µM): 99.63% | IC50 ([5]; Homo sapiens): 26.8 ± 1.55 µM

IC50 ([2]; Homo sapiens): 55.14 ± 0.24 µM | IC50 ([1]; Table 2 series (16a–n)): 0.102 µM | IC50 at 72 h [4]: > 300 µM
SMILES: COc1ccc(-c2nc3c(C(N)=O)scc3[nH]2)cc1 [Compound 16j, 2-(4-Methoxyphenyl)-1H-thieno[3,4-d]imidazole-4-carboxamide]
Inhibition Rate ([3]; 0.3 µM): 0.68% | Inhibition Rate ([3]; 1 µM): 2.85% | Inhibition Rate ([3]; 3 µM): 2.68% | Inhibition Rate ([3]; 10 µM): 6.95% | Inhibition Rate ([3]; 30 µM): 9.43% | Inhibition Rate ([3]; 100 µM): 12.63% | Inhibition Rate ([3]; 300 µM): 32.37% | IC50 ([5]; Homo sapiens): 46.6 ± 0.62 µM

IC50 ([1]; Table 2 series (16a–n)): 1.49 µM | melting point: 230 to 242 °C
SMILES: COc1cccc(-c2nc3c(C(N)=O)scc3[nH]2)c1 [Compound 16k, 2-(3-Methoxyphenyl)-1H-thieno[3,4-d]imidazole-4-carboxamide]

IC50 ([2]; Homo sapiens): 49.2 ± 5.43 µM | IC50 ([1]; Table 2 series (16a–n)): 0.043 µM | IC50 at 72 h [4]: > 300 µM
SMILES: Cc1ccc(-c2nc3c(C(N)=O)scc3[nH]2)cc1 [Compound 16l, 2-(p-Tolyl)-1H-thieno[3,4-d]imidazole-4-carboxamide]
Inhibition Rate ([3]; 0.3 µM): 0.42% | Inhibition Rate ([3]; 1 µM): 3.80% | Inhibition Rate ([3]; 3 µM): 7.12% | Inhibition Rate ([3]; 10 µM): 10.16% | Inhibition Rate ([3]; 30 µM): 13.65% | Inhibition Rate ([3]; 100 µM): 23.20% | Inhibition Rate ([3]; 300 µM): 27.94% | IC50 ([5]; Homo sapiens): 38.8 ± 1.6 µM

IC50 ([1]; Table 2 series (16a–n)): 5.79 µM | melting point: 254 to 255 °C
SMILES: Cc1cccc(-c2nc3c(C(N)=O)scc3[nH]2)c1 [Compound 16m, 2-(m-Tolyl)-1H-thieno[3,4-d]imidazole-4-carboxamide]

IC50 ([1]; Table 2 series (16a–n)): 0.328 µM | melting point: 222 to 223 °C
SMILES: Cc1ccccc1-c1nc2c(C(N)=O)scc2[nH]1 [Compound 16n, 2-(o-Tolyl)-1H-thieno[3,4-d]imidazole-4-carboxamide]

IC50 ([2]; Homo sapiens): 133 ± 14.4 µM | IC50 at 72 h [4]: 134 ± 3.14 µM
SMILES: O=C(c1cc(Cc2n[nH]c(=O)c3ccccc23)ccc1F)N1CCN(C(=O)C2CC2)CC1 [Olaparib, olaparib, reference compound]
Inhibition Rate ([3]; 0.3 µM): 1.88% | Inhibition Rate ([3]; 1 µM): 1.83% | Inhibition Rate ([3]; 3 µM): 1.10% | Inhibition Rate ([3]; 10 µM): 1.37% | Inhibition Rate ([3]; 30 µM): 1.04% | Inhibition Rate ([3]; 100 µM): 29.60% | Inhibition Rate ([3]; 300 µM): 91.45% | IC50 ([5]; Homo sapiens): 13.4 ± 1.16 µM

IC50 [2, 6]: 127 ± 18.1 µM | IC50 at 72 h [4]: ~200 µM
SMILES: C[C@]1(c2nc3c(C(N)=O)cccc3[nH]2)CCCN1 [Veliparib, veliparib, reference compound]
Inhibition Rate ([3]; 0.3 µM): 1.00% | Inhibition Rate ([3]; 1 µM): −0.28% | Inhibition Rate ([3]; 3 µM): −1.20% | Inhibition Rate ([3]; 10 µM): −1.35% | Inhibition Rate ([3]; 30 µM): −0.06% | Inhibition Rate ([3]; 100 µM): −0.45% | Inhibition Rate ([3]; 300 µM): 93.64% | IC50 [5, 6]: 57.7 ± 12.4 µM

The next lines start with the compound.

SMILES: NC(=O)c1scc2[nH]c(-c3ccc(C(=O)N4CCNCC4)cc3)nc12 [Compound 12, 2-(4-(Piperazine-1-carbonyl)phenyl)-1H-thieno[3,4-d]imidazole-4-carboxamide]
IC50 ([1]; Table 1 series (12, 13a–j)): 0.723 µM

SMILES: NC(=O)c1scc2[nH]c(-c3ccc(C(=O)N4CCN(C(=O)c5cccs5)CC4)cc3)nc12 [Compound 13a, 2-(4-(4-(Thiophene-2-carbonyl)piperazine-1-carbonyl)phenyl)-1H-thieno[3,4-d]imidazole-4-carboxamide]
IC50 ([1]; Table 1 series (12, 13a–j)): 2.57 µM

SMILES: NC(=O)c1scc2[nH]c(-c3ccc(C(=O)N4CCN(C(=O)c5ccccc5)CC4)cc3)nc12 [Compound 13b, 2-(4-(4-Benzoylpiperazine-1-carbonyl)phenyl)-1H-thieno[3,4-d]imidazole-4-carboxamide]
IC50 ([1]; Table 1 series (12, 13a–j)): 3.76 µM | melting point: 270 to 272 °C

SMILES: NC(=O)c1scc2[nH]c(-c3ccc(C(=O)N4CCN(C(=O)c5ccc(Br)cc5)CC4)cc3)nc12 [Compound 13c, 2-(4-(4-(4-Bromobenzoyl)piperazine-1-carbonyl)phenyl)-1H-thieno[3,4-d]imidazole-4-carboxamide]
IC50 ([1]; Table 1 series (12, 13a–j)): 1.87 µM | melting point: 294 to 296 °C

SMILES: NC(=O)c1scc2[nH]c(-c3ccc(C(=O)N4CCN(C(=O)c5ccc(Cl)cc5)CC4)cc3)nc12 [Compound 13d, 2-(4-(4-(4-Chlorobenzoyl)piperazine-1-carbonyl)phenyl)-1H-thieno[3,4-d]imidazole-4-carboxamide]
melting point: 247 to 249 °C

SMILES: Cc1ccc(C(=O)N2CCN(C(=O)c3ccc(-c4nc5c(C(N)=O)scc5[nH]4)cc3)CC2)cc1 [Compound 13e, 2-(4-(4-(4-Methylbenzoyl)piperazine-1-carbonyl)phenyl)-1H-thieno[3,4-d]imidazole-4-carboxamide]
melting point: 308 to 310 °C

SMILES: NC(=O)c1scc2[nH]c(-c3ccc(C(=O)N4CCN(Cc5ccccc5)CC4)cc3)nc12 [Compound 13f, 2-(4-(4-Benzylpiperazine-1-carbonyl)phenyl)-1H-thieno[3,4-d]imidazole-4-carboxamide]
IC50 ([1]; Table 1 series (12, 13a–j)): 3.86 µM

SMILES: NC(=O)c1scc2[nH]c(-c3ccc(C(=O)N4CCN(Cc5ccc(Br)cc5)CC4)cc3)nc12 [Compound 13g, 2-(4-(4-(4-Bromobenzyl)piperazine-1-carbonyl)phenyl)-1H-thieno[3,4-d]imidazole-4-carboxamide]
melting point: 285 to 288 °C

SMILES: N#Cc1ccc(CN2CCN(C(=O)c3ccc(-c4nc5c(C(N)=O)scc5[nH]4)cc3)CC2)cc1 [Compound 13h, 2-(4-(4-(4-Cyanobenzyl)piperazine-1-carbonyl)phenyl)-1H-thieno[3,4-d]imidazole-4-carboxamide]
IC50 ([1]; Table 1 series (12, 13a–j)): 3.72 µM | melting point: 284 to 286 °C

SMILES: Cc1ccc(CN2CCN(C(=O)c3ccc(-c4nc5c(C(N)=O)scc5[nH]4)cc3)CC2)cc1 [Compound 13i, 2-(4-(4-(4-Methylbenzyl)piperazine-1-carbonyl)phenyl)-1H-thieno[3,4-d]imidazole-4-carboxamide]
melting point: 272 to 273 °C

SMILES: NC(=O)c1scc2[nH]c(-c3ccc(C(=O)N4CCN(C(=O)C5CC5)CC4)cc3)nc12 [Compound 13j, 2-(4-(4-(Cyclopropanecarbonyl)piperazine-1-carbonyl)phenyl)-1H-thieno[3,4-d]imidazole-4-carboxamide]
IC50 ([1]; Table 1 series (12, 13a–j)): 1.53 µM | melting point: 272 to 273 °C

SMILES: NC(=O)c1scc2[nH]c(-c3ccccc3)nc12 [Compound 16a, 2-Phenyl-1H-thieno[3,4-d]imidazole-4-carboxamide]
IC50 ([1]; Table 2 series (16a–n)): 0.827 µM | melting point: 256 to 257 °C

SMILES: NC(=O)c1scc2[nH]c(-c3ccc(F)cc3)nc12 [Compound 16b, 2-(4-Fluorophenyl)-1H-thieno[3,4-d]imidazole-4-carboxamide]
IC50 ([1]; Table 2 series (16a–n)): 0.738 µM | melting point: 244 to 246 °C

SMILES: NC(=O)c1scc2[nH]c(-c3ccc(Cl)cc3)nc12 [Compound 16c, 2-(4-Chlorophenyl)-1H-thieno[3,4-d]imidazole-4-carboxamide]
IC50 ([1]; Table 2 series (16a–n)): 0.354 µM | melting point: 245 to 246 °C

SMILES: NC(=O)c1scc2[nH]c(-c3ccccc3Cl)nc12 [Compound 16d, 2-(2-Chlorophenyl)-1H-thieno[3,4-d]imidazole-4-carboxamide]
IC50 ([1]; Table 2 series (16a–n)): 1.49 µM | melting point: 202 to 204 °C

SMILES: NC(=O)c1scc2[nH]c(-c3c(Cl)cccc3Cl)nc12 [Compound 16e, 2-(2,6-Dichlorophenyl)-1H-thieno[3,4-d]imidazole-4-carboxamide]
melting point: 210 to 212 °C

SMILES: NC(=O)c1scc2[nH]c(-c3ccc(C(F)(F)F)cc3)nc12 [Compound 16f, 2-(4-(Trifluoromethyl)phenyl)-1H-thieno[3,4-d]imidazole-4-carboxamide]
IC50 ([1]; Table 2 series (16a–n)): 0.548 µM | melting point: 283 to 285 °C
